The values below come from ChEMBL document CHEMBL5150056, “Synthesis and antibiofilm evaluation of N-acyl-2-aminopyrimidine derivatives against Acinetobacter baumannii” (Bioorg Med Chem, 2022).

The test system of assay [1] is Acinetobacter baumannii. Put plainly: Antibacterial activity against Acinetobacter baumannii S1 assessed as planktonic growth inhibition incubated for 18 to 24 hrs by CLSI protocol based assay. It counts as functional. Particulars: time 18-24 hrs.
The test system of assay [2] is Acinetobacter baumannii. Put plainly: Antibiofilm activity against Acinetobacter baumannii S1 assessed as inhibition rate of biofilm formation at 100 uM incubated for 18 to 24 hrs by crystal violet staining based assay (reference value: 28.8 +/- 8.21%). Set-up: scale not given: the % may be the effect or the level left. It counts as functional. Particulars: time 18-24 hrs.

Assay [3] deals with Acinetobacter baumannii. Put plainly: Antibacterial activity against Acinetobacter baumannii assessed as planktonic growth inhibition incubated for 18 to 24 hrs by CLSI protocol based assay. It counts as functional. Particulars: time 18-24 hrs.
In assay [4] the test system is Pseudomonas aeruginosa. Put plainly: Antibiofilm activity against Pseudomonas aeruginosa ATCC 27853 assessed as inhibition rate of biofilm formation at 200 uM incubated for 18 to 24 hrs by crystal violet staining based assay relative to control. The class given is functional. Particulars: time 18-24 hrs.
Assay [5] deals with Acinetobacter baumannii. Put plainly: Antibiofilm activity against Acinetobacter baumannii ATCC19606 assessed as inhibition of biofilm formation incubated for 18 to 24 hrs by crystal violet staining based assay. The class given is functional, organism-based.
Assay [6] relates to Acinetobacter baumannii. Put plainly: Antibiofilm activity against Acinetobacter baumannii S1 assessed as inhibition of biofilm formation incubated for 18 to 24 hrs by crystal violet staining based assay. It counts as functional, organism-based.
Assay [7] relates to Acinetobacter baumannii. Put plainly: Antibiofilm activity against Acinetobacter baumannii 1913061 assessed as inhibition of biofilm formation incubated for 18 to 24 hrs by crystal violet staining based assay. It counts as functional, organism-based.
For assay [8], the system named is Escherichia coli. Put plainly: Antibiofilm activity against Escherichia coli Dh5alpha assessed as inhibition rate of biofilm formation at 200 uM incubated for 18 to 24 hrs by crystal violet staining based assay relative to control. It counts as functional. Particulars: DH5-alpha, time 18-24 hrs.
Assay [9] concerns Acinetobacter baumannii. Put plainly: Antibiofilm activity against Acinetobacter baumannii 1778027 assessed as inhibition rate of biofilm formation at 200 uM incubated for 18 to 24 hrs by crystal violet staining based assay relative to control. It counts as functional. The note with it: time 18-24 hrs.
Assay [10] deals with Staphylococcus epidermidis. Put plainly: Antibiofilm activity against Staphylococcus epidermis ATCC 102555 assessed as inhibition rate of biofilm formation at 200 uM incubated for 18 to 24 hrs by crystal violet staining based assay relative to control. The class given is functional. The note with it: time 18-24 hrs.
The test system of assay [11] is Acinetobacter baumannii. Put plainly: Antibiofilm activity against Acinetobacter baumannii 1780608 assessed as inhibition of biofilm formation incubated for 18 to 24 hrs by crystal violet staining based assay. It counts as functional, organism-based.
For assay [12], the system named is Acinetobacter baumannii. Put plainly: Antibiofilm activity against Acinetobacter baumannii 1925052 assessed as inhibition of biofilm formation incubated for 18 to 24 hrs by crystal violet staining based assay. The class given is functional, organism-based.
Assay [13] concerns Staphylococcus aureus. Put plainly: Antibiofilm activity against Staphylococcus aureus ATCC […] assessed as inhibition rate of biofilm formation at 200 uM incubated for 18 to 24 hrs by crystal violet staining based assay relative to control. It counts as functional. Particulars: time 18-24 hrs.

Structures are written as SMILES. ≈ marks a conversion by molar mass, not a printed value.

Take `CCCCCCCCCCCCCCCC(=O)Nc1ncccn1`: the MIC in assay [1] was greater than 256 µg/mL. In [2], the Activity is given as 22.5%.
Turning to `CCCCCCCCCCCCCC(=O)Nc1ncc(Cl)c(Cl)n1`, in assay [1], the MIC is greater than 256 µg/mL. Moreover, the Activity in assay [2] was found to be 30.9%.
Consider `Cc1cc(C)c(C(=O)Nc2ncccn2)c(C)c1`, for which the MIC in assay [1] was greater than 256 µg/mL. For the same molecule, the Activity in assay [2] amounted to 26.9%.
Regarding `CCCCCCCCCCCCCC(=O)Nc1nc(Cl)c(Cl)c(Cl)n1`, in assay [1], the MIC was greater than 256 µg/mL. For the same molecule, the Activity in [2] is 32%.
As to `CCCCCCCCCCCCCC(=O)Nc1nc(Cl)cc(Cl)n1`, the MIC in [1] was greater than 256 µg/mL. Moreover, the Activity in [2] is recorded as 63.1%.
Consider `CCCCCCCCCC(=O)Nc1ncccn1`, for which the MIC in assay [1] is greater than 256 µg/mL. Besides, the Activity in assay [2] turned out to be 33.2%.
Turning to `Cc1onc(-c2ccccc2)c1C(=O)N[C@@H]1C(=O)N2[C@@H]1SC(C)(C)[C@@H]2C(=O)O` [OXACILLIN], in assay [3], the MIC was found to be 512 µg/mL (≈ 1280 µM).
As to `O=C(Nc1ncccn1)c1ccccc1`, the minimal inhibitory concentration (MIC) in assay [1] was greater than 256 µg/mL. Also, the Activity in assay [2] is 28%.
In the same order, the values of `CC(C)CC(=O)Nc1ncccn1` are greater than 256 µg/mL and 3.8%.
Taken in the same sequence, the figures for `O=C(Nc1ncccn1)OCc1ccccc1` were greater than 256 µg/mL and 24.5%.
As for `CCCCCCCCCCCCCC(=O)Nc1ncc(Cl)cn1`, in assay [1], the MIC is greater than 256 µg/mL. Besides, the Activity in assay [2] is listed as 40.5%.
As for `O=C(Nc1ncccn1)c1cccc2ccccc12`, the MIC in assay [1] is greater than 256 µg/mL. The Activity in assay [2] is recorded as 9.4%.
Take `O=C(N[C@H](CO)[C@H](O)c1ccc([N+](=O)[O-])cc1)C(Cl)Cl` [CHLORAMPHENICOL]: in assay [3], the MIC is 256 µg/mL (≈ 792 µM).
Turning to `O=C(Cc1cccc(Br)c1)N[C@H]1CCOC1=O`, the inhibition at 200 µM in assay [4], in assay [8], in assay [9], in [10] and in assay [13] was less than 50% in each case. The IC50 in assay [5] was 85.3 µM; in assay [6], 143 µM; in assay [7], 22.8 µM; in [11] it was 120 µM; in [12], 195 µM.
As to `CCCCCCCCCCCCCC(=O)Nc1nccc(C)n1`, in [1], the MIC is greater than 256 µg/mL. Also, the Activity in assay [2] came to 26.9%.
With `CCCCCCCCCCCCCC(=O)Nc1nc(Cl)cc(N2CCOCC2)n1`, the MIC in assay [1] is greater than 256 µg/mL. Moreover, in assay [2], the Activity is listed as 28.5%.
Taken in the same sequence, the figures for `O=C(Nc1ncccn1)C(F)(F)C(F)(F)C(F)(F)F` were greater than 256 µg/mL and 19.9%.
`O=C(CCc1ccccc1)Nc1ncccn1`: in assay [1], the MIC was greater than 256 µg/mL. Besides, in assay [2], the Activity is -0.2%.
Taken in the same sequence, the figures for `CCCCCCCCCCCC(=O)Nc1ncccn1` were greater than 256 µg/mL and 19.1%.
Take `CCCCCCCCCCCCCC(=O)Nc1nccc(Cl)n1`: the MIC in assay [1] was greater than 256 µg/mL. Also, in [2], the Activity is 44.9%.
Taken in the same sequence, the figures for `O=C(Nc1ncccn1)c1ccc([N+](=O)[O-])cc1` were greater than 256 µg/mL and 25.1%.
In the case of `CCCCCCCCCCCCCC(=O)Nc1ncc(Br)cn1`, the MIC in [1] was greater than 256 µg/mL. Besides, in assay [2], the Activity amounted to 31.1%.

For orientation: MIC means the least concentration at which growth counts as inhibited. As usually defined, the inhibition is the share of the control response that was lost under treatment. The term IC50 denotes the midpoint of a concentration-inhibition curve.
